Among the data in US7205314B2, “Compounds for the treatment of dementia related diseases” (AstraZeneca AB, priority 2001, dated 2007) are melting point values, retold here.

Broadly, the melting point is the temperature of the solid-liquid transition.

For `COCCOc1ccc2c(C3C(=O)Nc4ccc(C#N)cc43)nccc2c1` (stereo not shown) [Example 3, 3-[6-(2-Methoxyethoxy)isoquinolin-1-yl]-2-oxo-2,3-dihydro-1H-indole-5-carbonitrile], the melting point fell in the range of 214 to 219 °C.
